Data on six compounds can be found in PubChem BioAssay AID328 (DTP/NCI, 2004).

“And” between values parts separate entries of the source, which are not always exact repeats. Identical values can stand only once. Toxic doses and inconclusive results are not listed.

This experiment concerns BDF1 mice, P388 leukemia ip, median survival T/C. The experiment can be described thus: NCI In Vivo Anticancer Drug Screen. Data for tumor model P388 Leukemia (intraperitoneal) in B6D2F1 (BDF1) mice. The note with it: endpoint: median survival time, higher = longer survival. In short, it runs like this:
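Survival ratio, drug arm over vehicle arm, in mice with a transplanted tumour.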

Consider `CC(=O)NNC(=O)c1ccccn1`, for which the T/C is, setting by setting: (dose: 4.0 mg/kg/injection, schedule: Q03HX024 (ip), vehicle: saline) 100 % of control; (dose: 8.0 mg/kg/injection, schedule: Q03HX008 (ip), vehicle: saline) 100 % of control; (dose: 8.0 mg/kg/injection, schedule: Q03HX016 (ip), vehicle: saline) 95 % of control; (dose: 8.0 mg/kg/injection, schedule: Q03HX024 (ip), vehicle: saline) 90 % of control; (dose: 16.0 mg/kg/injection, schedule: Q03HX008 (ip), vehicle: saline) 90 % of control; (dose: 16.0 mg/kg/injection, schedule: Q03HX016 (ip), vehicle: saline) 90 % of control. Besides, the T/C was 100 % of control (dose: 16.0 mg/kg/injection, schedule: Q03HX024 (ip), vehicle: saline); 95 % of control (dose: 19.0 mg/kg/injection, schedule: Q01DX010 (ip), vehicle: water); 90 % of control (dose: 32.0 mg/kg/injection, schedule: Q01DX009 (ip), vehicle: saline); 90 % of control (dose: 32.0 mg/kg/injection, schedule: Q01DX009 (oral), vehicle: saline); 95 % of control (dose: 32.0 mg/kg/injection, schedule: Q03HX008 (ip), vehicle: saline); 90 % of control (dose: 32.0 mg/kg/injection, schedule: Q03HX016 (ip), vehicle: saline). The T/C (dose: 32.0 mg/kg/injection, schedule: Q03HX024 (ip), vehicle: saline) is 90 % of control; the T/C (dose: 32.0 mg/kg/injection, schedule: Q04DX003 (ip), vehicle: saline) was 90 % of control; the T/C (dose: 38.0 mg/kg/injection, schedule: Q01DX010 (ip), vehicle: water) is 100 % of control; the T/C (dose: 50.0 mg/kg/injection, schedule: Q01DX009 (ip), vehicle: water) was 113 % of control; the T/C (dose: 50.0 mg/kg/injection, schedule: Q01DX009 (oral), vehicle: water) was 109 % of control; the T/C (dose: 64.0 mg/kg/injection, schedule: Q01DX001 (ip), vehicle: saline) is 90 % of control. The T/C (dose: 64.0 mg/kg/injection, schedule: Q01DX001 (oral), vehicle: saline) is 90 % of control; the T/C (dose: 64.0 mg/kg/injection, schedule: Q01DX009 (ip), vehicle: saline) is 90 % of control; the T/C (dose: 64.0 mg/kg/injection, schedule: Q01DX009 (oral), vehicle: saline) is 90 % of control; the T/C (dose: 64.0 mg/kg/injection, schedule: Q03HX008 (ip), vehicle: saline) was 95 % of control; the T/C (dose: 64.0 mg/kg/injection, schedule: Q03HX016 (ip), vehicle: saline) was 90 % of control; the T/C (dose: 64.0 mg/kg/injection, schedule: Q03HX024 (ip), vehicle: saline) is 90 % of control. The T/C (dose: 64.0 mg/kg/injection, schedule: Q04DX003 (ip), vehicle: saline) is 100 % of control; the T/C (dose: 64.0 mg/kg/injection, schedule: Q08DX002 (ip), vehicle: saline) is 90 % of control; the T/C (dose: 75.0 mg/kg/injection, schedule: Q01DX010 (ip), vehicle: water) is 100 % of control; the T/C (dose: 100.0 mg/kg/injection, schedule: Q01DX009 (oral), vehicle: water) was 109 % of control; the T/C (dose: 128.0 mg/kg/injection, schedule: Q01DX001 (ip), vehicle: saline) was 100 % of control; the T/C (dose: 128.0 mg/kg/injection, schedule: Q01DX001 (oral), vehicle: saline) was 95 % of control. For the same compound, the T/C runs as follows: (dose: 128.0 mg/kg/injection, schedule: Q01DX009 (ip), vehicle: saline) 95 % of control; (dose: 128.0 mg/kg/injection, schedule: Q01DX009 (oral), vehicle: saline) 90 % of control; (dose: 128.0 mg/kg/injection, schedule: Q04DX003 (ip), vehicle: saline) 90 % of control; (dose: 128.0 mg/kg/injection, schedule: Q08DX002 (ip), vehicle: saline) 90 % of control; (dose: 256.0 mg/kg/injection, schedule: Q01DX001 (ip), vehicle: saline) 90 % of control; (dose: 256.0 mg/kg/injection, schedule: Q01DX001 (oral), vehicle: saline) 90 % of control. The T/C (dose: 256.0 mg/kg/injection, schedule: Q04DX003 (ip), vehicle: saline) is 95 % of control.

As for `c1cc(CC2CO2)c2c(c1CC1CO1)OCCOCCOCCOCCO2` (stereo not drawn), the T/C (dose: 15.0 mg/kg/injection, schedule: Q01DX009 (ip), vehicle: saline + alcohol) was 100 % of control; the T/C (dose: 30.0 mg/kg/injection, schedule: Q01DX009 (ip), vehicle: saline + alcohol) is 106 % of control; the T/C (dose: 60.0 mg/kg/injection, schedule: Q01DX009 (ip), vehicle: saline + alcohol) was 109 % of control; the T/C (dose: 120.0 mg/kg/injection, schedule: Q01DX009 (ip), vehicle: saline + alcohol) is 111 % of control.

Take `COc1ccc(CC(=O)NCCN(CCN(CCO)C(=O)Cc2ccc(OC)cc2)C(=O)Cc2ccc(OC)cc2)cc1`: the T/C is, setting by setting: (dose: 100.0 mg/kg/injection, schedule: Q01DX009 (ip), vehicle: saline with Tween-80) 105 % of control; (dose: 100.0 mg/kg/injection, schedule: Q04DX003 (ip), vehicle: saline with Tween-80) 120 % of control; (dose: 200.0 mg/kg/injection, schedule: Q01DX009 (ip), vehicle: saline with Tween-80) 95 % of control; (dose: 200.0 mg/kg/injection, schedule: Q04DX003 (ip), vehicle: saline with Tween-80) 100 % of control; (dose: 400.0 mg/kg/injection, schedule: Q01DX009 (ip), vehicle: saline with Tween-80) 100 % of control; (dose: 400.0 mg/kg/injection, schedule: Q04DX003 (ip), vehicle: saline with Tween-80) 105 % of control.

Turning to `CN[C@H]1CCc2cc(OC)c(OC)c(OC)c2-c2ccc(OC)c(=O)cc21`, the T/C runs as follows: (dose: 0.63 mg/kg/injection, schedule: Q01DX010 (ip), vehicle: saline) 104 % of control; (dose: 1.25 mg/kg/injection, schedule: Q01DX009 (ip), vehicle: saline) 117 % of control; (dose: 1.25 mg/kg/injection, schedule: Q01DX010 (ip), vehicle: saline) 122 % of control; (dose: 2.5 mg/kg/injection, schedule: Q01DX010 (ip), vehicle: saline) 122 % of control; (dose: 5.0 mg/kg/injection, schedule: Q01DX010 (ip), vehicle: saline) 150 % of control; (dose: 10.0 mg/kg/injection, schedule: Q01DX009 (ip), vehicle: saline) 93 % of control.

On to `COc1cccc2c1C(=O)c1c(O)c3c(c(O)c1C2=O)C[C@@](O)(/C(C)=N/NC(=O)c1ccccc1)C[C@@H]3OC1CC(N)C(O)C(C)O1` (stereo partly drawn), for which the T/C is, setting by setting: (dose: 0.38 mg/kg/injection, schedule: Q01DX009 (ip), vehicle: water) 166 % of control; (dose: 0.75 mg/kg/injection, schedule: Q01DX009 (ip), vehicle: water) 166 % of control; (dose: 1.5 mg/kg/injection, schedule: Q01DX009 (ip), vehicle: saline) 216 % of control; (dose: 1.5 mg/kg/injection, schedule: Q01DX009 (ip), vehicle: water) 123 % of control and 217 % of control; (dose: 3.0 mg/kg/injection, schedule: Q01DX009 (ip), vehicle: saline) 250 % of control; (dose: 3.0 mg/kg/injection, schedule: Q01DX009 (ip), vehicle: water) 245 % of control and 110 % of control. Also, the T/C reads like this: (dose: 3.0 mg/kg/injection, schedule: Q04DX003 (ip), vehicle: saline) 226 % of control; (dose: 6.0 mg/kg/injection, schedule: Q01DX009 (ip), vehicle: saline) 166 % of control; (dose: 6.0 mg/kg/injection, schedule: Q01DX009 (ip), vehicle: water) 164 % of control; (dose: 6.0 mg/kg/injection, schedule: Q04DX003 (ip), vehicle: saline) 208 % of control; (dose: 6.5 mg/kg/injection, schedule: Q04DX003 (ip), vehicle: water) 171 % of control; (dose: 10.8 mg/kg/injection, schedule: Q04DX003 (ip), vehicle: water) 165 % of control. Further, the T/C (dose: 12.0 mg/kg/injection, schedule: Q01DX009 (ip), vehicle: saline) was 95 % of control; the T/C (dose: 12.0 mg/kg/injection, schedule: Q04DX003 (ip), vehicle: saline) was 195 % of control; the T/C (dose: 18.0 mg/kg/injection, schedule: Q04DX003 (ip), vehicle: water) is 103 % of control.

In the case of `O=C1C=CC(=O)N1CCc1ccccc1`, the T/C reads like this: (dose: 5.0 mg/kg/injection, schedule: Q01DX009 (ip), vehicle: saline with Tween-80) 100 % of control; (dose: 10.0 mg/kg/injection, schedule: Q01DX009 (ip), vehicle: saline with Tween-80) 92 % of control; (dose: 10.0 mg/kg/injection, schedule: Q04DX003 (ip), vehicle: saline with Tween-80) 108 % of control; (dose: 20.0 mg/kg/injection, schedule: Q01DX009 (ip), vehicle: saline with Tween-80) 92 % of control; (dose: 20.0 mg/kg/injection, schedule: Q04DX003 (ip), vehicle: saline with Tween-80) 108 % of control.
